Data set [1] has as its system Salmonella typhimurium tester strains TA97a, TA98, TA100, TA102, TA1537 and TA1538. To be noted: for mutagenic response (Ames, summary): two-fold or greater increase in revertants above background and dose dependent response. The source says:
The second property that is important in testing a compound for use in methods described herein is mutagenicity. The most widely used mutagen/carcinogen screening assay is the Ames test. This assay is described by D.M. Maron and B.N. Ames in Mutation Research 113:173 ( 1983) and a specific screen is described in detail in Example 17, below. The Ames test utilizes several unique strains of Salmonella typhimurium that are histidine- dependent for growth and that lack the usual DNA repair enzymes. The frequency of normal mutations that render the bacteria independent of histidine (i.e., the frequency of spontaneous revertants) is low. The test allows one to evaluate the impact of a compound on this revenant frequency.
Because some substances are not mutagenic by themselves, but are converted to a mutagen by metabolic action, the compound to be tested is mixed with the bacteria on agar plates along with the liver extract. The liver extract serves to mimic metabolic action in an animal.
The mixtures are allowed to incubate. Growth of bacteria (if any) is checked by counting colonies.
In this example the compounds described herein are tested for their dark mutagenicity using an Ames assay. The procedures used for the Salmonella mutagenicity test as described in detail by Maron and Ames were followed exactly. Maron, D.M. and B.N. Ames, Mutation Research 113: 173 ( 1983). A brief description for each procedure is given here. The tester strains TA97a, TA98, TA 100, TA102, TA1537 and TA1538 were obtained from Dr. Ames. TA97a, TA98, TA1537 and TA1538 are frameshift tester strains. TA100 and TA102 are base-substitution tester strains. Upon receipt each strain was cultured under a variety of conditions to confirm the genotypes specific to the strains.
The first tests done with the strains were to determine the range of spontaneous reversion for each of the strains. With each mutagenicity experiment the spontaneous reversion of the tester strains to histidine independence was measured and expressed as the number of spontaneous revertants per plate. This served as the background controls.
For all experiments, the pre-incubation procedure was used. In this procedure one vial of each tester strain was thawed and 20 µL of this culture was added to 6 mL of Oxoid Nutrient Broth #2. This solution was allowed to shake for 10 hours at 37°C. In the pre-incubation procedure, 0.1 mL of this overnight culture was added to each of the required number of sterile test tubes. To half of the tubes 0.5 mL of a 10% S-9 solution containing Aroclor 1254 induced rat liver extract (Molecular Toxicology Inc., Annapolis, MD), and MgCl2, KCl, glucose-6-phosphate, NADP, and sodium phosphate buffer (Sigma, St. Louis, Missouri) were added. To the other half of the tubes 0.5 mL of 0.2M sodium phospate buffer, pH 7.4, was used in place of the S-9 mixture (the - S9 samples). Finally 0.1 mL of the test solution containing either 0, 0.1, 0.5, 1, 5, 10, 50, 100, 250, or 500 µg/mL of the test compound was added. The 0.7 mL mixture was vonexed and then pre-incubated while shaking for 20 minutes at 37°C. After shaking, 2 mL of molten top agar supplemented with histidine and biotin were added to the 0.7 mL mixture and immediately poured onto a minimal glucose agar plate (volume of base agar was 20 mL). The top agar was allowed 30 minutes to solidify and then the plates were inverted and incubated for 44 hours at 37°C. After incubation the number of revertant colonies on each plate were counted.
Maron and Ames (1983) describe the conflicting views with regard to the statistical treatment of data generated from the test.

Another data set deals with R17. The experiment in a line: r-17 bacteriophage assay: R17 treated with compound and UVA, remaining titer by plaque count on Hfr 3000 bacteria. Format: cell-based. Here is the method:
In the r-17 assay, the bacteriophage was placed in a solution with each compound tested and was then irradiated. The ability of the phage to subsequently infect bacteria and inhibit their growth was measured. The bacteriophage was selected for its relatively accessible nucleic acid such that the culture growth inhibition would accurately reflect nucleic acid damage by the test compounds. The bacteriophage assay for nucleic acid binding to test compounds offers a safe and inexpensive procedure to identify compounds likely to display efficient pathogen inactivation. Previous experiments support that the r-17 assay accurately measures HIV-1 sensitivity to similar compounds. […] Modified Eagles Medium (DMEM) to a final phage concentration of 10^9/mL. An aliquot (0.5 mL) was transferred to a 1.5 mL snap-top polyethylene tube. […] Louis, MO). The tubes were placed in a light device as described in EXAMPLE 1 and irradiated for between 1 and 10 minutes. […] To make the dilutions. a 0.100 mL aliquot of the irradiated solution of phage and test compound was added to the first dilution tube of 0.4 mL of media then 0.020 mL of this solution was added to the second tube of 0.5 mL medium (1:25). […] After the top agar hardened, the plates were incubated at 37 °C overnight. The plaque forming units were then counted the following morning and the titer of the phage remaining after phototreatment was calculated based on the dilution factors. The following controls were run: the "phage only" in which phage was not treated with test compound and not irradiated (listed as "starting titer" in the tables below); the "UV only" in which the phage was irradiated in the absence of test compound; and the "dark" control in which the phage/test compound solution was not irradiated before it was diluted and plated. Compounds described herein were also tested at a constant concentration for varying doses of UV light. […] The compound tested was added at the desired concentration and the samples were vortexed. […] Between each 1.0 J/cm^2 intervals, 100µL was removed from each sample and placed in the first corresponding dilution tube, then five sequential dilutions were performed for each compound tested, at all 3 irradiation doses, as described above in this example. […] The contents of each tube was poured into its own LB plate and the plates were incubated overnight at 37 °C. Plaques were counted by visual inspection the following morning.

For the next data set, the system named is HIV-1. To be noted: 1 Minute Irradiation.
The next data set concerns Male Balb/c mice. The procedure:
Male Balb/c mice were then injected with 0.1 ml of a compound solution via the tail vein. At least 3 mice were injected per dose level Saline only was used as a negative control. For a positive control, cyclophosphamide (cycloPP) was administered at a dose of 30 mg/kg. In the experimental group, the injections were repeated once per day for four days. In the positive control group, the sample was administered only once, on day three. On day 5, several microliters of blood were withdrawn from each subject and smeared on a glass slide. Cells were fixed in absolute methanol and stored in a slide rack.
For analysis, cells were stained with acridine orange and visualized under a fluorescence microscope by counting: (i) the number of reticulocytes per 5000 erythrocytes; and (ii) the number of micronucleated reticulocytes per 1000 reticulocytes. Reticulocytes were distinguished by their red fluorescence due to the presence of RNA. Micronuclei were distinguished by their green fluorescence due to the presence of DNA. The percentage of reticulocytes (%PCE) was then calculated. A decrease in the frequency of erythrocytes, represented by an increase in the percentage of reticulocytes, is an indication of bone marrow toxicity. The percentage of reticulocytes with micronuclei (%PCE with MN) was also calculated. An increase in %PCE with MN is a measure of elastogenicity.
After initial results were determined, the experiment was repeated using increased dose levels, until: (i) Micronucleus formation was seen; or (ii). Bone marrow toxicity was observed; or (iii) The lethal dose was reached; or (iv) A dose of 5 g/kg was administered.

Setting [2] is: 16 µM, 1 Minute irradiation = 1.2 J/cm^2, Starting Titer Approx. 7.1 Logs (Table 8).
Where [3] appears, read: 32 µM, HIV Starting Titer Approximately 5 Logs (Table 10).
Where [4] appears, read: 64 µM, HIV Starting Titer Approximately 5 Logs (Table 10).
The mark [5] stands for this setting: positive control, Dose 30 mg/kg administered only once, on day three, one value per experiment, 30 mg/kg.

Several values for one entry are separate records, joined by “and”; a condition that tells them apart may be missing. Identical values can stand only once. Like-named read-outs stand apart in the source and are kept apart here. A value given as a limit tells only on which side of the number the result lay.

Experimental for HIV-1: Pathogen inactivation efficiency of several compounds described herein was evaluated by examining the ability of the compounds to inactivate cell-free virus (HIV). Inactivation of cell-free HIV was performed as follows.
As in the R17 assay, small aliquots of the compounds listed in TABLES 10 and 11, below, at the concentrations listed in the table, were added to stock HIV-1 to a total of 0.5 mL. The stock HIV (10^5 - 10^7 plaque forming units/mL) was in DMEM/15% FBS. […] Controls included HIV-I stock only, HIV-1 plus UVA only, and HIV-I plus the highest concentration of each psoralen tested, with no UVA. Post irradiation. all samples were store frozen at -70° C until assayed for infectivity by a microtiter plaque assay. Aliquots for measurement of residual HIV infectivity in the samples treated with a compound of the present invention were withdrawn and cultured.
Residual HIV infectivity was assayed using an MT-2 infectivity assay. […] The assay medium was 85% DMEM (with a high glucose concentration) containing 100 µg of streptomycin, 100 U of penicillin, 50 µg of gentamicin, and 1 µg of amphotericin B per mL, 15% FBS and 2 µg of Polybrene (Sigma Chemical Co., St. Louis, Mo.) per mL. Test and control samples from the inactivation procedure were diluted in 50% assay medium and 50% normal human pooled plasma. The samples were serially diluted directly in 96-well plates (Coming Glass Works, Coming, N.Y.). The plates were mixed on an oscillatory shaker for 30 seconds and incubated at 37°C in a 5% CO2 atmosphere for 1 to 18 hours. […] After an additional 1 hour of incubation at 37°C in 5% CO2, 0.075 mL of assay medium containing 1.6% SeaPlaque agarose (FMC Bioproducts, Rockland, Maine) and prewarmed to 38.5°C was added to each well. The plates were kept at 37°C for a few minutes until several plates had accumulated and then centrifuged in plate carriers at 600 x g for 20 minutes in a centrifuge precooled to 10°C. In the centrifuge, cell monolayers formed prior to gelling of the agarose layer. The plates were incubated for 5 days at 37°C in 5% CO2 and stained by the addition of 0.05 mL of 50 µg/mL propidium iodide (Sigma Chemical Co.) in phosphate-buffered saline (pH 7.4) to each well. After 24 to 48 hours, the red fluorescence-stained microplaques were visualized by placing the plates on an 8,000 µW/cm^2 304 nm UV light box (Fotodyne, Inc., New Berlin, Wis.). The plaques were counted at a magnification of x20 to x25 through a stereomicroscope.

Regarding `Cc1oc2c(C)c3oc(=O)cc(C)c3cc2c1CCN` [Compound 3, 4'-(2-aminoethyl)-4,5',8-trimethylpsoralen], the “revertant colonies, TA100 +S9” value in data set [1] (5 µg/plate) is given as -19; in data set [1] (10 µg/plate), 8. The “revertant colonies, TA100 -S9” value in data set [1] (5 µg/plate) and in data set [1] (10 µg/plate) was 47 in each case. For the same compound, the entries for the “revertant colonies, TA1538 +S9” value in data set [1] (5 µg/plate) and in data set [1] (10 µg/plate) were 1 and 9, respectively. The figures for the “revertant colonies, TA1538 -S9” value in data set [1] (5 µg/plate) and in data set [1] (10 µg/plate) were 0 and -6, respectively. Moreover, in data set [1], the “mutagenic response (Ames, summary)” value is on record as “no mutagenicity”. In addition, the “R17 Log Kill” value with R17 (8 µM, 1 Minute Irradiation, Starting Titer Approx. 7.2 Logs (Table 7)) is given as >6.2; in the data set on R17 (8 µM, 1 Minute irradiation = 1.2 J/cm^2, Starting Titer Approx. 7.1 Logs (Table 8)), 5.6; with R17 (16 µM, 1 Minute Irradiation, Starting Titer Approx. 7.2 Logs (Table 7)), >6.2; in the data set on R17 (setting [2]), >6.1; with R17 (32 µM, 1 Minute Irradiation, Starting Titer Approx. 7.2 Logs (Table 7)) it was >6.2. Also, the “R17 inactivation efficiency compared with AMT” value in the data set on R17 (varying concentration (Tables 7 and 8, FIGS. 6-10)) is “significantly higher inactivation efficiency than does AMT”. Besides, the results for the “HIV Log Kill” value in the data set with HIV-1 (setting [3]) and in the data set on HIV-1 (setting [4]) were 2.7 and >3.8, respectively.
Turning to `Cc1oc2c(C)c3oc(=O)cc(C)c3cc2c1COCCCN` [Compound 4, 4'-(5-amino-2-oxa)pentyl-4,5',8-trimethylpsoralen], the “revertant colonies, TA100 +S9” value was -10 in data set [1] (5 µg/plate) and -3 in data set [1] (10 µg/plate). The “revertant colonies, TA100 -S9” value in data set [1] (5 µg/plate) was -41; in data set [1] (10 µg/plate), 3. The “revertant colonies, TA1538 +S9” value is reported as 7 in data set [1] (5 µg/plate) and -2 in data set [1] (10 µg/plate). Moreover, the “revertant colonies, TA1538 -S9” value in data set [1] (5 µg/plate) and in data set [1] (10 µg/plate) was -2 each time. Besides, the “mutagenic response (Ames, summary)” value in data set [1] was “no mutagenicity”. Also, the “R17 Log Kill” value in the data set with R17 (setting [2]) is reported as 2.3; in the data set on R17 (32 µM, 1 Minute irradiation = 1.2 J/cm^2, Starting Titer Approx. 7.1 Logs (Table 8)), 4.3; in the data set on R17 (64 µM, 1 Minute irradiation = 1.2 J/cm^2, Starting Titer Approx. 7.1 Logs (Table 8)) it was >6.1. For the same compound, the “HIV Log Kill” value was 2.2 with HIV-1 (setting [3]) and >3.6 in the data set on HIV-1 (setting [4]).
In the case of `Cc1cc(=O)oc2c(C)c3oc(CNCCCCN)c(C)c3cc12` [Compound 17, 5'-(6-amino-2-aza)hexyl-4,4',8-trimethylpsoralen], the “efficiency at inactivating R17 compared with AMT” value in the data set with R17 (constant concentration, varying doses of UV light 1.0-3.0 J/cm^2 (FIGS. 11-17)) is on record as “more efficient at inactivating R17 than was AMT”. For the same compound, the “HIV Log Kill” value with HIV-1 (16 µM, HIV Starting Titer Approximately 5.4 Logs (Table 11)) was 1.2; in the data set with HIV-1 (32 µM, HIV Starting Titer Approximately 5.4 Logs (Table 11)) it was 2.9; in the data set with HIV-1 (64 µM, HIV Starting Titer Approximately 5.4 Logs (Table 11)) it was 3.4. For the same compound, the “bone marrow toxicity or micronucleus formation” value in the data set on Male Balb/c mice (experiment repeated using increased dose levels) is given as “the acutely lethal dose was reached before there were any signs of bone marrow toxicity or micronucleus formation”.
With `O=P1(N(CCCl)CCCl)NCCCO1` (centres unmarked) [CycloPP, cyclophosphamide, reference compound], in the data set with Male Balb/c mice (setting [5]), the “PCE + MN (%)” value was 1.98 ± 0.40% and 1.76 ± 0.64%; the “PCE/RBC (%)” value was 1.39 ± 0.41% and 1.65 ± 0.64% and 0.99 ±0.33%.

The values above are taken from patent EP0840781B1, “METHODS AND DEVICES FOR THE REMOVAL OF PSORALENS FROM BLOOD PRODUCTS” (Cerus Corporation, priority 1995, dated 1996).
